Test results from patent US8592174B2, “Peptidase substrates” (bioMérieux, S.A., priority 2009, dated 2013).

Legend:
Assay type in all cases: cell-based
MRSA 0303033 = assay: Peptidase detection on Columbia medium (Example 4); settings: 75 mg/l, 48 h 37° C.; for Growth: control C: ++
Description: (§1) After homogenization, the media were distributed into 120-mm-squared dishes. A medium serving as a growth control (Columbia) and denoted C was also poured.

[1] = system: Burkholderia cepacia 7507032; assay: Peptidase detection on Columbia medium (Example 4); settings: 75 mg/l, 48 h 37° C.; for Growth: control C: ++
Description: as §1

[2] = system: Staphylococcus aureus 7811049; assay: Peptidase detection on Columbia medium (Example 4); settings: 75 mg/l, 48 h 37° C.; for Growth: control C: ++
Description: as §1

[3] = system: Providencia rettgeri 0706064; assay: Peptidase detection on Columbia medium (Example 4); settings: 75 mg/l, 48 h 37° C.; for Growth: control C: ++
Description: as §1

[4] = system: Listeria monocytogenes 8812049; assay: Peptidase detection on Columbia medium (Example 4); settings: 75 mg/l, 48 h 37° C.; for Growth: control C: ++
Description: as §1

[5] = system: Bacillus subtilis 0204038; assay: Peptidase detection on Columbia medium (Example 4); settings: 75 mg/l, 48 h 37° C.; for Growth: control C: ++
Description: as §1

[6] = system: Citrobacter freundii 0006197; assay: Peptidase detection on Columbia medium (Example 4); settings: 75 mg/l, 48 h 37° C.; for Growth: control C: ++
Description: as §1

[7] = system: Serratia marcescens 7303004; assay: Peptidase detection on Columbia medium (Example 4); settings: 75 mg/l, 48 h 37° C.; for Growth: control C: ++
Description: as §1

Candida glabrata 0408083 = assay: Peptidase detection on Columbia medium (Example 4); settings: 75 mg/l, 48 h 37° C.; for Growth: control C: +
Description: as §1

[8] = system: Pseudomonas aeruginosa 0001001; assay: Peptidase detection on Columbia medium (Example 4); settings: 75 mg/l, 48 h 37° C.; for Growth: control C: ++
Description: as §1

[9] = system: Yersinia enterocolitica 7605019; assay: Peptidase detection on Columbia medium (Example 4); settings: 75 mg/l, 48 h 37° C.; for Growth: control C: ++
Description: as §1

Candida albicans 0801025 = assay: Peptidase detection on Columbia medium (Example 4); settings: 75 mg/l, 48 h 37° C.; for Growth: control C: ++
Description: as §1

Escherichia coli 0002005 = assay: Peptidase detection on Columbia medium (Example 4); settings: 75 mg/l, 48 h 37° C.; for Growth: control C: ++
Description: as §1

[10] = system: Klebsiella pneumoniae 0008009; assay: Peptidase detection on Columbia medium (Example 4); settings: 75 mg/l, 48 h 37° C.; for Growth: control C: ++
Description: as §1

[11] = system: Enterobacter cloacae 0604040; assay: Peptidase detection on Columbia medium (Example 4); settings: 75 mg/l, 48 h 37° C.; for Growth: control C: ++
Description: as §1

[12] = system: Enterococcus faecium 0610021; assay: Peptidase detection on Columbia medium (Example 4); settings: 75 mg/l, 48 h 37° C.; for Growth: control C: ++
Description: as §1

[13] = system: Enterococcus faecalis 0008192; assay: Peptidase detection on Columbia medium (Example 4); settings: 75 mg/l, 48 h 37° C.; for Growth: control C: ++
Description: as §1

[14] = system: Morganella morganii 9207053; assay: Peptidase detection on Columbia medium (Example 4); settings: 75 mg/l, 48 h 37° C.; for Growth: control C: ++
Description: as §1

[15] = system: Salmonella ser typhimurium 0801029; assay: Peptidase detection on Columbia medium (Example 4); settings: 75 mg/l, 48 h 37° C.; for Growth: control C: ++
Description: as §1

[16] = system: Streptococcus pyogenes 9806380; assay: Peptidase detection on Columbia medium (Example 4); settings: 75 mg/l, 48 h 37° C.; for Growth: control C: ++
Description: as §1

[17] = system: Acinetobacter baumannii 0604029; assay: Peptidase detection on Columbia medium (Example 4); settings: 75 mg/l, 48 h 37° C.; for Growth: control C: ++
Description: as §1

[18] = system: Staphylococcus epidermidis 0203050; assay: Peptidase detection on Columbia medium (Example 4); settings: 75 mg/l, 48 h 37° C.; for Growth: control C: ++
Description: as §1

[19] = system: Pectobacterium atrosepticum 80 12 075; assay: pH variation detection on modified chromID Coli medium (Example 6); settings: 50 mg/l, 24 h 37° C.
Description: (§2) The media were incubated for 24 hours at 37° C., then the spots formed were examined visually.

[20] = system: Pseudomonas aeruginosa 89 09 041; assay: as above; settings: 50 mg/l, 24 h 37° C.
Description: as §2

[21] = system: Enterobacter sakazakii 05 01 020; assay: as above; settings: 50 mg/l, 24 h 37° C.
Description: as §2

[22] = system: Enterobacter cloacae NCTC 11 936; assay: Peptidase detection on Columbia medium (Example 2); parameters: key to Growth: NG: No growth; 0.5: weak growth; 1: moderate growth; 2: good growth; settings: 40 mg in 400 ml Columbia; 24 h 37° C.
Description: (§3) The 6 media were distributed into Petri dishes 90 mm in diameter, in a proportion of 20 ml per dish.
(§4) Seventeen strains of microorganisms stemming from collections and belonging to various species of bacteria and yeasts are inoculated in spots of approximately 10 000 colony-forming units.
(§5) The media are incubated for 24 hours at 37° C., and then the colonies formed are examined visually, with or without the addition of acid and under a UV lamp at 365 nm.

[23] = system: Serratia marcescens NCTC 10 211; assay: Peptidase detection on Columbia medium (Example 2); parameters: key to Growth: NG: No growth; 0.5: weak growth; 1: moderate growth; 2: good growth; settings: 40 mg in 400 ml Columbia; 24 h 37° C.
Description: as §3, §4, §5

[24] = system: Staphylococcus epidermidis NCTC 11 047; assay: Peptidase detection on Columbia medium (Example 2); parameters: key to Growth: NG: No growth; 0.5: weak growth; 1: moderate growth; 2: good growth; key to Fluo. / Color / Color post-acid.: —: no color; settings: 40 mg in 400 ml Columbia; 24 h 37° C.
[25] = system: Candida glabrata NCPF 3 943; assay: Peptidase detection on Columbia medium (Example 2); parameters: key to Growth: NG: No growth; 0.5: weak growth; 1: moderate growth; 2: good growth; key to Fluo. / Color / Color post-acid.: —: no color; settings: 40 mg in 400 ml Columbia; 24 h 37° C.
Description: as §3, §4, §5

[26] = system: Candida albicans ATCC 90 028; assay: Peptidase detection on Columbia medium (Example 2); parameters: key to Growth: NG: No growth; 0.5: weak growth; 1: moderate growth; 2: good growth; key to Fluo. / Color / Color post-acid.: —: no color; settings: 40 mg in 400 ml Columbia; 24 h 37° C.
Description: as §3, §4, §5

**Q.** For `C[C@H](N)C(=O)Nc1ccc(C=Cc2cc[n+](C)c3ccccc23)cc1.Cl.[Cl-]` [L-alanyl-4-(4′-amidostyryl)-N-methylquinolinium (dichloride)], which Color (MRSA 0303033) is on record?
**A.** orange

**Q.** And the Coloration strength (MRSA 0303033)?
**A.** +

**Q.** And the Growth (MRSA 0303033)?
**A.** ++

**Q.** And the Color [1]?
**A.** orange

**Q.** And the Coloration strength [1]?
**A.** +

**Q.** What about the Growth [1] of the same compound?
**A.** ++

**Q.** What about the Coloration strength [2] of the same compound?
**A.** +

**Q.** And the Growth [2]?
**A.** ++

**Q.** What about the Color [3] of the same compound?
**A.** orange

**Q.** What about the Coloration strength [3] of the same compound?
**A.** +

**Q.** And the Growth [3]?
**A.** ++

**Q.** What about the Color [4] of the same compound?
**A.** orange

**Q.** And the Coloration strength [4]?
**A.** ++

**Q.** And the Growth [4]?
**A.** ++

**Q.** What about the Color [5] of the same compound?
**A.** −

**Q.** And the Coloration strength [5]?
**A.** −

**Q.** What about the Growth [5] of the same compound?
**A.** ++

**Q.** And the Color [6]?
**A.** orange

**Q.** What about the Coloration strength [6] of the same compound?
**A.** +

**Q.** And the Growth [6]?
**A.** ++

**Q.** What about the Color [7] of the same compound?
**A.** orange

**Q.** And the Coloration strength [7]?
**A.** ++

**Q.** And the Growth [7]?
**A.** ++

**Q.** What about the Coloration strength (Candida glabrata 0408083) of the same compound?
**A.** −

**Q.** What about the Growth (Candida glabrata 0408083) of the same compound?
**A.** +

**Q.** And the Color [8]?
**A.** orange

**Q.** And the Coloration strength [8]?
**A.** ++

**Q.** And the Growth [8]?
**A.** ++

**Q.** And the Color [9]?
**A.** orange

**Q.** And the Coloration strength [9]?
**A.** ++

**Q.** What about the Growth [9] of the same compound?
**A.** ++

**Q.** And the Coloration strength (Candida albicans 0801025)?
**A.** −

**Q.** What about the Growth (Candida albicans 0801025) of the same compound?
**A.** ++

**Q.** What about the Color (Escherichia coli 0002005) of the same compound?
**A.** orange

**Q.** What about the Coloration strength (Escherichia coli 0002005) of the same compound?
**A.** ++

**Q.** What about the Growth (Escherichia coli 0002005) of the same compound?
**A.** ++

**Q.** What about the Color [10] of the same compound?
**A.** orange

**Q.** What about the Coloration strength [10] of the same compound?
**A.** ++

**Q.** What about the Growth [10] of the same compound?
**A.** ++

**Q.** And the Color [11]?
**A.** orange

**Q.** What about the Coloration strength [11] of the same compound?
**A.** ++

**Q.** What about the Growth [11] of the same compound?
**A.** ++

**Q.** What about the Color [12] of the same compound?
**A.** −

**Q.** What about the Coloration strength [12] of the same compound?
**A.** −

**Q.** And the Growth [12]?
**A.** ++

**Q.** And the Color [13]?
**A.** orange

**Q.** And the Coloration strength [13]?
**A.** +

**Q.** And the Growth [13]?
**A.** ++

**Q.** And the Color [14]?
**A.** orange

**Q.** And the Coloration strength [14]?
**A.** ++

**Q.** What about the Growth [14] of the same compound?
**A.** ++

**Q.** What about the Color [15] of the same compound?
**A.** orange

**Q.** What about the Coloration strength [15] of the same compound?
**A.** +

**Q.** And the Growth [15]?
**A.** ++

**Q.** What about the Color [16] of the same compound?
**A.** orange

**Q.** And the Coloration strength [16]?
**A.** +

**Q.** What about the Growth [16] of the same compound?
**A.** ++

**Q.** And the Color [17]?
**A.** orange

**Q.** What about the Coloration strength [17] of the same compound?
**A.** ++

**Q.** And the Growth [17]?
**A.** ++

**Q.** And the Color [18]?
**A.** orange

**Q.** And the Coloration strength [18]?
**A.** ++

**Q.** And the Growth [18]?
**A.** ++

**Q.** Which Coloration strength [19] does the source give for `Nc1ccc(C=Cc2ccnc3ccccc23)cc1` here?
**A.** −

**Q.** What about the Growth ([19]; control C: −) of the same compound?
**A.** −

**Q.** What about the Coloration strength [20] of the same compound?
**A.** −

**Q.** What about the Growth ([20]; control C: ++) of the same compound?
**A.** +

**Q.** What about the Coloration strength [21] of the same compound?
**A.** −

**Q.** And the Growth ([21]; control C: ++)?
**A.** ++

**Q.** What does the source list for `C[C@H](N)C(=O)N[C@@H](C)C(=O)N[C@@H](C)C(=O)Nc1ccc(C=Cc2cc[n+](C)c3ccccc23)cc1.Cl.[Cl-]` [Tri-Ala-ASQM^+, L-alanyl-L-alanyl-L-alanyl-4-(4′-amidostyryl)-N-methylquinolinium (dichloride)]?
**A.** Color [22]: Orange; Growth [22]: 2; Color [23]: Orange; Growth [23]: 2; Color [24]: —; Growth [24]: 2; Color [25]: —; Growth [25]: 2; Color (MRSA 0303033): orange; Coloration strength (MRSA 0303033): +; Growth (MRSA 0303033): ++; Color [1]: orange; Coloration strength [1]: +; Growth [1]: ++; Coloration strength [2]: +; Growth [2]: ++; Color [3]: orange; Coloration strength [3]: +; Growth [3]: ++; Color [4]: orange; Coloration strength [4]: ++; Growth [4]: ++; Coloration strength [5]: −; Growth [5]: ++; Color [6]: orange; Coloration strength [6]: +; Growth [6]: ++; Color [7]: orange; Coloration strength [7]: ++; Growth [7]: ++; Growth (Candida glabrata 0408083): −; Color [8]: orange; Coloration strength [8]: ++; Growth [8]: ++; Color [9]: orange; Coloration strength [9]: ++; Growth [9]: ++; Growth (Candida albicans 0801025): +; Color (Escherichia coli 0002005): orange; Coloration strength (Escherichia coli 0002005): ++; Growth (Escherichia coli 0002005): ++; Color [10]: orange; Coloration strength [10]: ++; Growth [10]: ++; Color [11]: orange; Coloration strength [11]: ++; Growth [11]: ++; Coloration strength [12]: −; Growth [12]: ++; Color [13]: orange; Coloration strength [13]: +; Growth [13]: ++; Color [14]: orange; Coloration strength [14]: ++; Growth [14]: ++; Color [15]: orange; Coloration strength [15]: +; Growth [15]: ++; Color [16]: orange; Coloration strength [16]: +; Growth [16]: ++; Color [17]: orange; Coloration strength [17]: ++; Growth [17]: ++; Color [18]: orange; Coloration strength [18]: ++; Growth [18]: ++; Color [26]: —; Growth [26]: 2
